In ChEMBL document CHEMBL3045349, “A comparative study on the interference of two herbicides in wheat and italian ryegrass and on their antioxidant activities and detoxification rates” (J Agric Food Chem, 2011):

Assays:
[1] = tested on: Triticum aestivum; experiment: Effect on photosynthetic activity in Triticum aestivum (wheat) shoots assessed as dark respiration rate measured by CO2 production compound administered at rate of 14 mf/flat measured 24 hr post treatment (reference value: -1.35 umol/m2/s); format: functional
[2] = tested on: Lolium multiflorum; experiment: Effect on photosynthetic activity in Lolium multiflorum (Italian ryegrass) shoots assessed as dark respiration rate measured by CO2 production compound administered at rate of 14 mf/flat measured 48 hr post treatment (reference value: -1.68 umol/m2/s); format: functional
[3] = tested on: Triticum aestivum; experiment: Increase in antioxidant enzyme system in Triticum aestivum (wheat) shoots assessed as increase in ascorbate peroxidase activity compound administered at rate of 14 mf/flat measured 24 hr post treatment; format: functional
[4] = tested on: Shoot; experiment: Drug level in Triticum aestivum (wheat) shoots compound administered at rate of 14 mf/flat measured 96 hr post treatment by HPLC; format: ADME
[5] = tested on: Triticum aestivum; experiment: Effect on antioxidant enzyme system in Triticum aestivum (wheat) shoots assessed as dehydroascorbate reductase activity per mg protein compound administered at rate of 14 mf/flat measured 72 hr post treatment (reference value: 4.7 nmol/s per mg protein); format: functional
[6] = tested on: Lolium multiflorum; experiment: Increase in glutathione S-transferase activity in Lolium multiflorum (Italian ryegrass) compound administered at rate of 14 mf/flat measured 48 hr post treatment; format: functional
[7] = tested on: Lolium multiflorum; experiment: Increase in MDA content in Lolium multiflorum (Italian ryegrass) shoots compound administered at rate of 14 mf/flat measured 72 hr post treatment; format: functional
[8] = tested on: Triticum aestivum; experiment: Effect on MDA content in Triticum aestivum (wheat) shoots compound administered at rate of 14 mf/flat measured 48 hr post treatment (reference value: 0.053 uM/L); format: functional
[9] = tested on: Triticum aestivum; experiment: Effect on antioxidant enzyme system in Triticum aestivum (wheat) shoots assessed as glutathione S-transferase activity per mg protein compound administered at rate of 14 mf/flat measured […] post treatment (reference value: 2.4 nmol/s per mg protein); format: functional
[10] = tested on: Shoot; experiment: Drug level in Lolium multiflorum (Italian ryegrass) shoots compound administered at rate of 14 mf/flat measured 144 hr post treatment by HPLC; format: ADME
[11] = tested on: Lolium multiflorum; experiment: Effect on MDA content in Lolium multiflorum (Italian ryegrass) shoots compound administered at rate of 14 mf/flat measured 72 hr post treatment (reference value: 0.67 uM/L); format: functional
[12] = tested on: Lolium multiflorum; experiment: Increase in glutathione S-transferase activity in Lolium multiflorum (Italian ryegrass) compound administered at rate of 14 mf/flat measured 24 hr post treatment; format: functional
[13] = tested on: Shoot; experiment: Drug level in Lolium multiflorum (Italian ryegrass) shoots compound administered at rate of 14 mf/flat measured 96 hr post treatment by HPLC; format: ADME
[14] = tested on: Triticum aestivum; experiment: Increase in antioxidant enzyme system in Triticum aestivum (wheat) shoots assessed as increase in dehydroascorbate reductase activity compound administered at rate of 14 mf/flat measured 24 hr post treatment; format: functional
[15] = tested on: Shoot; experiment: Drug level in Triticum aestivum (wheat) shoots compound administered at rate of 14 mf/flat measured 24 hr post treatment by HPLC; format: ADME
[16] = tested on: Triticum aestivum; experiment: Increase in antioxidant enzyme system in Triticum aestivum (wheat) shoots assessed as increase in dehydroascorbate reductase activity compound administered at rate of 14 mf/flat measured 72 hr post treatment; format: functional
[17] = tested on: Lolium multiflorum; experiment: Effect on MDA content in Lolium multiflorum (Italian ryegrass) shoots compound administered at rate of 14 mf/flat measured 48 hr post treatment (reference value: 0.65 uM/L); format: functional
[18] = tested on: Lolium multiflorum; experiment: Drug level in Lolium multiflorum (Italian ryegrass) compound administered at rate of 14 mf/flat measured 24 hr post treatment by HPLC; format: ADME, organism-based; conditions: in vivo
[19] = tested on: Lolium multiflorum; experiment: Effect on antioxidant enzyme system in Lolium multiflorum (Italian ryegrass) shoots assessed as catalase activity per mg protein compound administered at rate of 14 mf/flat measured 72 hr post treatment (reference value: 0.12 nmol/s per mg protein); format: functional
[20] = tested on: Lolium multiflorum; experiment: Increase in MDA content in Lolium multiflorum (Italian ryegrass) shoots compound administered at rate of 14 mf/flat measured 48 hr post treatment; format: functional
[21] = tested on: Triticum aestivum; experiment: Effect on antioxidant enzyme system in Triticum aestivum (wheat) shoots assessed as dehydroascorbate reductase activity per mg protein compound administered at rate of 14 mf/flat measured 24 hr post treatment (reference value: 4.6 nmol/s per mg protein); format: functional
[22] = tested on: Lolium multiflorum; experiment: Effect on antioxidant enzyme system in Lolium multiflorum (Italian ryegrass) shoots assessed as glutathione reductase activity per mg protein compound administered at rate of 14 mf/flat measured 72 hr post treatment (reference value: 1.2 nmol/s per mg protein); format: functional
[23] = tested on: Triticum aestivum; experiment: Effect on photosynthetic activity in Triticum aestivum (wheat) shoots assessed as leaf net photosynthesis rate measured by CO2 production compound administered at rate of 14 mf/flat measured 72 hr post treatment (reference value: 1.46 umol/m2/s); format: functional
[24] = tested on: Triticum aestivum; experiment: Effect on antioxidant enzyme system in Triticum aestivum (wheat) shoots assessed as glutathione reductase activity per mg protein compound administered at rate of 14 mf/flat measured 72 hr post treatment (reference value: 1.1 nmol/s per mg protein); format: functional
[25] = tested on: Lolium multiflorum; experiment: Effect on antioxidant enzyme system in Lolium multiflorum (Italian ryegrass) shoots assessed as dehydroascorbate reductase activity per mg protein compound administered at rate of 14 mf/flat measured 48 hr post treatment (reference value: 3.6 nmol/s per mg protein); format: functional
[26] = tested on: Lolium multiflorum; experiment: Effect on antioxidant enzyme system in Lolium multiflorum (Italian ryegrass) shoots assessed as glutathione S-transferase activity per mg protein compound administered at rate of 14 mf/flat measured 24 hr post treatment (reference value: 0.34 nmol/s per mg protein); format: functional
[27] = tested on: Lolium multiflorum; experiment: Effect on antioxidant enzyme system in Lolium multiflorum (Italian ryegrass) shoots assessed as glutathione reductase activity per mg protein compound administered at rate of 14 mf/flat measured 24 hr post treatment (reference value: 1.1 nmol/s per mg protein); format: functional
[28] = tested on: Triticum aestivum; experiment: Effect on antioxidant enzyme system in Triticum aestivum (wheat) shoots assessed as glutathione S-transferase activity per mg protein compound administered at rate of 14 mf/flat measured 24 hr post treatment (reference value: 2.7 nmol/s per mg protein); format: functional
[29] = tested on: Lolium multiflorum; experiment: Effect on antioxidant enzyme system in Lolium multiflorum (Italian ryegrass) shoots assessed as catalase activity per mg protein compound administered at rate of 14 mf/flat measured 24 hr post treatment (reference value: 0.13 nmol/s per mg protein); format: functional
[30] = tested on: Triticum aestivum; experiment: Effect on antioxidant enzyme system in Triticum aestivum (wheat) shoots assessed as catalase activity per mg protein compound administered at rate of 14 mf/flat measured 24 hr post treatment (reference value: 0.1 nmol/s per mg protein); format: functional
[31] = tested on: Triticum aestivum; experiment: Effect on MDA content in Triticum aestivum (wheat) shoots compound administered at rate of 14 mf/flat measured 72 hr post treatment (reference value: 0.050 uM/L); format: functional
[32] = tested on: Triticum aestivum; experiment: Increase in antioxidant enzyme system in Triticum aestivum (wheat) shoots assessed as increase in glutathione reductase activity compound administered at rate of 14 mf/flat measured 24 hr post treatment; format: functional
[33] = tested on: Lolium multiflorum; experiment: Effect on antioxidant enzyme system in Lolium multiflorum (Italian ryegrass) shoots assessed as glutathione reductase activity per mg protein compound administered at rate of 14 mf/flat measured 48 hr post treatment (reference value: 1.1 nmol/s per mg protein); format: functional

| SMILES | Activity [1] [micromol/m2/s] | Activity [2] [micromol/m2/s] | Activity [3] [%] | Drug uptake [4] [ppm] | Activity [5] [nmol/s/mg protein] | Activity [6] [%] | Activity [7] [%] | Activity [8] [µM] | Activity [9] [nmol/s/mg protein] | Drug uptake [10] [ppm] | Activity [11] [µM] | Activity [12] [%] | Drug uptake [13] [ppm] | Activity [14] [%] | Drug uptake [15] [ppm] | Activity [16] [%] | Activity [17] [µM] | Drug uptake [18] [ppm] | Activity [19] [nmol/s/mg protein] | Activity [20] [%] | further results |
| --- | --- | --- | --- | --- | --- | --- | --- | --- | --- | --- | --- | --- | --- | --- | --- | --- | --- | --- | --- | --- | --- |
| CCNc1nc(Cl)nc(NC(C)C)n1 [ATRAZINE] | -0.51 | -1.56 | 40 | 1.94 | 5.7 | 103 | 10 | 0.53 | 2.5 | 3.11 | 0.74 | 35 | 4.22 | 20 | 1.38 | 21 | 0.85 | 4.75 | 0.13 | 31 | Activity [21]: 5.5 nmol/s/mg protein; Activity [22]: 1.2 nmol/s/mg protein; Activity [23]: 0 micromol/m2/s; Activity [24]: 1 nmol/s/mg protein; Activity [25]: 3.5 nmol/s/mg protein; Activity [26]: 0.46 nmol/s/mg protein; Activity [27]: 1.4 nmol/s/mg protein; Activity [28]: 1.7 nmol/s/mg protein; Activity [29]: 0.13 nmol/s; Activity [30]: 0.1 nmol/s/mg protein; Activity [31]: 0.057 µM; Activity [32]: 36%; Activity [33]: 1 nmol/s/mg protein |
| O=[N+]([O-])c1ccc(Oc2ccc(C(F)(F)F)cc2[N+](=O)[O-])cc1 [FLUORODIFEN] | -0.82 | -1.36 | 46 | 0.08 | 6.8 | 371 | 10 | 0.05 | 2.3 | 0.2 | 0.74 | 97 | 0.36 | 9 | 1.64 | 45 | 0.74 | 0.72 | 0.13 | 14 | Activity [21]: 5 nmol/s/mg protein; Activity [22]: 1.1 nmol/s/mg protein; Activity [23]: 1.25 micromol/m2/s; Activity [24]: 1 nmol/s/mg protein; Activity [25]: 4.3 nmol/s/mg protein; Activity [26]: 0.67 nmol/s/mg protein; Activity [27]: 1.9 nmol/s/mg protein; Activity [28]: 2.3 nmol/s/mg protein; Activity [29]: 0.11 nmol/s; Activity [30]: 0.11 nmol/s/mg protein; Activity [31]: 0.049 µM; Activity [32]: 36%; Activity [33]: 1 nmol/s/mg protein |
